Remaining binding data for one compound are collected here from PMC7486443, “Generation of Phenothiazine with Potent Anti-TLK1 Activity for Prostate Cancer Therapy” (iScience, 2020).

Targets include BMX (Homo sapiens, UniProt P51813); EPHA5 (Homo sapiens, UniProt P54756); INSRR (Homo sapiens, UniProt P14616); BRSK1 (Homo sapiens, UniProt Q8TDC3); CAMKK2 (Homo sapiens, UniProt Q96RR4); SYK (Homo sapiens, UniProt P43405); PIP5K1C (Homo sapiens, UniProt O60331); NEK7 (Homo sapiens, UniProt Q8TDX7); BRSK2 (Homo sapiens, UniProt Q8IWQ3); PLK2 (Homo sapiens, UniProt Q9NYY3).
Holding throughout (assay): biochemical
Common to all, as to set-up: DiscoverX KINOMEscan scanMAX competition binding panel, single concentration, percent of control; remaining binding: dose or concentration left out as unconfirmed
What all share (conditions): KINOMEscan binding, percent of control; read-out: Table S4_SCANMAX REPORT - related to Fig. 1 / Percent Control

A further assay deals with T1, p38-beta (Homo sapiens, UniProt Q15759).
T1 construct: gene MAPK11

The target in the next assay is T2, PCTK2 (Homo sapiens, UniProt Q00537).
T2 construct: gene CDK17

The target of another assay is T3, PRKR (Homo sapiens, UniProt P19525).
T3 construct: gene EIF2AK2

The target of the next assay is T4, ASK2 (Homo sapiens, UniProt O95382).
T4 construct: gene MAP3K6

The target of another assay is T5, DMPK2 (Homo sapiens, UniProt Q6DT37).
T5 construct: gene CDC42BPG

Assay [1] has as its target T6, ABL1(H396P)-phosphorylated (Homo sapiens, UniProt P00519, H396P).
T6 construct: phosphorylated

The next assay addresses T7, QSK (Homo sapiens, UniProt Q9Y2K2).
T7 construct: gene SIK3

The next assay has as its target T8, PKAC-beta (Homo sapiens, UniProt P22694).
T8 construct: gene PRKACB

Chain of PLK2 (Q9NYY3 whole entry): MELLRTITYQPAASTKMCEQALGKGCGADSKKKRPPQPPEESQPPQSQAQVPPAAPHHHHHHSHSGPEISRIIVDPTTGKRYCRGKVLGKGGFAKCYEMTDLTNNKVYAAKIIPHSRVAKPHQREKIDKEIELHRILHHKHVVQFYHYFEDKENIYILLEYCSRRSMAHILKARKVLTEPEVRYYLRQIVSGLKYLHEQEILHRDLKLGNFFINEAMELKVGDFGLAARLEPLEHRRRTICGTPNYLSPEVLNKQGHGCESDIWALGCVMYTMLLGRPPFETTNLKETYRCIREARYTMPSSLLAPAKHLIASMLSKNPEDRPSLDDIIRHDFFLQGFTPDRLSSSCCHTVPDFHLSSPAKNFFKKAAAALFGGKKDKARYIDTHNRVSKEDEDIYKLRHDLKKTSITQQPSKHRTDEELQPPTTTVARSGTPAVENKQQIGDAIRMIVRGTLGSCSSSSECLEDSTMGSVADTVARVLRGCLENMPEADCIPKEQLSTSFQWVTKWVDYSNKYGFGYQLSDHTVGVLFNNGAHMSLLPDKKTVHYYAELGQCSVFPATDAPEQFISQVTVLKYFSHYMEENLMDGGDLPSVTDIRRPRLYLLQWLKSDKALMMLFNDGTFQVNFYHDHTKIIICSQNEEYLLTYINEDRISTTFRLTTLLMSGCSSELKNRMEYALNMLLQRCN
T4 sequence (O95382 whole entry): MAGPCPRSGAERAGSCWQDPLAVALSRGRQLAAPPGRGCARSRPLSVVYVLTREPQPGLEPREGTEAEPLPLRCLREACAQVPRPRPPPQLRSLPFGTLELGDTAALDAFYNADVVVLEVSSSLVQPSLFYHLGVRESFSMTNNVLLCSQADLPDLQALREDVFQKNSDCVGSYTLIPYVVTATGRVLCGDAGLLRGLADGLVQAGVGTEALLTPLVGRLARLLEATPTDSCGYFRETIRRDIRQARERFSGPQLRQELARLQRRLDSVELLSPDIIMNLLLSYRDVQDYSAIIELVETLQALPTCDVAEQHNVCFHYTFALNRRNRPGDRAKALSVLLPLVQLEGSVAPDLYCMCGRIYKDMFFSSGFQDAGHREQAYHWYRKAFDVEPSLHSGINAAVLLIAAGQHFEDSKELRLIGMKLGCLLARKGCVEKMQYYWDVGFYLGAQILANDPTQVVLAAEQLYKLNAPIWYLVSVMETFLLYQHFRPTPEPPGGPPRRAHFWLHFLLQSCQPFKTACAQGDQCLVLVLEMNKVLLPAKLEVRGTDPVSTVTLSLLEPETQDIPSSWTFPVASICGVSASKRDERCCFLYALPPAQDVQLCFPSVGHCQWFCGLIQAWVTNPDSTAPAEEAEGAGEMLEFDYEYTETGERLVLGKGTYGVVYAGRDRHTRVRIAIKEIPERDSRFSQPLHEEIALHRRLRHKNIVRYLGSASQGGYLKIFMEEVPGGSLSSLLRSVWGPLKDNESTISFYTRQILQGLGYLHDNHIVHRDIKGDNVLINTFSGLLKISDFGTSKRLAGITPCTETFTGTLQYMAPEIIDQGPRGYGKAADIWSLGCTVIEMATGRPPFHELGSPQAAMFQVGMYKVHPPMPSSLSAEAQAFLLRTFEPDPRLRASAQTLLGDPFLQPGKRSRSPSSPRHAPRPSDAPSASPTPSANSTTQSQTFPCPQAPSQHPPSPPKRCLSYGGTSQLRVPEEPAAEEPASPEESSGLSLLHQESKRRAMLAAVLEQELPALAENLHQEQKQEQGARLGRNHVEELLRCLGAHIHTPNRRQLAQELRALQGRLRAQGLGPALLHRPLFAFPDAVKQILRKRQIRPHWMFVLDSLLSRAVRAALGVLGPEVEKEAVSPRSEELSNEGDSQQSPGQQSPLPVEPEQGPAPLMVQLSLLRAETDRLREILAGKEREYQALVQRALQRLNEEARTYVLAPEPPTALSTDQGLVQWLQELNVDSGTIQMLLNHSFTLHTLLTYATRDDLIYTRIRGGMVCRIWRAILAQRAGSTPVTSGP
Chain of INSRR (P14616 whole entry): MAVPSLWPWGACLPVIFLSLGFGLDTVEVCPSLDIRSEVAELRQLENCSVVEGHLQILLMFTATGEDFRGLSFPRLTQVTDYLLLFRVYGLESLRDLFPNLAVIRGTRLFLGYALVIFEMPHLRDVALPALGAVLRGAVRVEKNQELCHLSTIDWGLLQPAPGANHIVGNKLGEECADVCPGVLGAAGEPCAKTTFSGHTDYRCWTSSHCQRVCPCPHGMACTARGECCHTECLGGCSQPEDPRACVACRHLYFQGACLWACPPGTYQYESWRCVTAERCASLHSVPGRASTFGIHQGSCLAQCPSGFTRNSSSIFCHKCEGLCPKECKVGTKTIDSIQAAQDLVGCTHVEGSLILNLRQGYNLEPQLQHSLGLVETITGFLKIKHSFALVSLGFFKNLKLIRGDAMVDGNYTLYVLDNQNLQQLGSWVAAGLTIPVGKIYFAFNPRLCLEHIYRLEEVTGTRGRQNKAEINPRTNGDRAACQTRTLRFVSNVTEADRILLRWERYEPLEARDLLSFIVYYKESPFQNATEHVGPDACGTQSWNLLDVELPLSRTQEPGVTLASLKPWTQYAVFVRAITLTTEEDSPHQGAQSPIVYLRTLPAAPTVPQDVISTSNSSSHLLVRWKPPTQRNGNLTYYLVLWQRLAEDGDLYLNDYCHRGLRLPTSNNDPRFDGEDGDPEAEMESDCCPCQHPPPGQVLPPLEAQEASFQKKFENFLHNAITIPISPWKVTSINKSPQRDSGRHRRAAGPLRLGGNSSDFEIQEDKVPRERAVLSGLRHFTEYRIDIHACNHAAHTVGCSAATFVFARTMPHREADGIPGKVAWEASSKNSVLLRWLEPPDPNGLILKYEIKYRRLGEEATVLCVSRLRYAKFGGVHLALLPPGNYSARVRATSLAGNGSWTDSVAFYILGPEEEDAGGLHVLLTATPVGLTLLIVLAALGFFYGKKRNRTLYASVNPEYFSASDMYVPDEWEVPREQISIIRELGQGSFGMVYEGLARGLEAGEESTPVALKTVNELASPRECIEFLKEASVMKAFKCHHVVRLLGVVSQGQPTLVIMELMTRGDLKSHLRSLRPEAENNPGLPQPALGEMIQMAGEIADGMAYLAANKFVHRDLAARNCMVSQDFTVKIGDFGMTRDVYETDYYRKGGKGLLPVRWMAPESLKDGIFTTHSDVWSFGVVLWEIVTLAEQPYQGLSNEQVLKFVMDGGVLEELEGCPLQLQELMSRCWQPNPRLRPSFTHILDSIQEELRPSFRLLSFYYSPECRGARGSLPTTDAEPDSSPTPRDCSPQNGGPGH
T5 sequence (Q6DT37 whole entry): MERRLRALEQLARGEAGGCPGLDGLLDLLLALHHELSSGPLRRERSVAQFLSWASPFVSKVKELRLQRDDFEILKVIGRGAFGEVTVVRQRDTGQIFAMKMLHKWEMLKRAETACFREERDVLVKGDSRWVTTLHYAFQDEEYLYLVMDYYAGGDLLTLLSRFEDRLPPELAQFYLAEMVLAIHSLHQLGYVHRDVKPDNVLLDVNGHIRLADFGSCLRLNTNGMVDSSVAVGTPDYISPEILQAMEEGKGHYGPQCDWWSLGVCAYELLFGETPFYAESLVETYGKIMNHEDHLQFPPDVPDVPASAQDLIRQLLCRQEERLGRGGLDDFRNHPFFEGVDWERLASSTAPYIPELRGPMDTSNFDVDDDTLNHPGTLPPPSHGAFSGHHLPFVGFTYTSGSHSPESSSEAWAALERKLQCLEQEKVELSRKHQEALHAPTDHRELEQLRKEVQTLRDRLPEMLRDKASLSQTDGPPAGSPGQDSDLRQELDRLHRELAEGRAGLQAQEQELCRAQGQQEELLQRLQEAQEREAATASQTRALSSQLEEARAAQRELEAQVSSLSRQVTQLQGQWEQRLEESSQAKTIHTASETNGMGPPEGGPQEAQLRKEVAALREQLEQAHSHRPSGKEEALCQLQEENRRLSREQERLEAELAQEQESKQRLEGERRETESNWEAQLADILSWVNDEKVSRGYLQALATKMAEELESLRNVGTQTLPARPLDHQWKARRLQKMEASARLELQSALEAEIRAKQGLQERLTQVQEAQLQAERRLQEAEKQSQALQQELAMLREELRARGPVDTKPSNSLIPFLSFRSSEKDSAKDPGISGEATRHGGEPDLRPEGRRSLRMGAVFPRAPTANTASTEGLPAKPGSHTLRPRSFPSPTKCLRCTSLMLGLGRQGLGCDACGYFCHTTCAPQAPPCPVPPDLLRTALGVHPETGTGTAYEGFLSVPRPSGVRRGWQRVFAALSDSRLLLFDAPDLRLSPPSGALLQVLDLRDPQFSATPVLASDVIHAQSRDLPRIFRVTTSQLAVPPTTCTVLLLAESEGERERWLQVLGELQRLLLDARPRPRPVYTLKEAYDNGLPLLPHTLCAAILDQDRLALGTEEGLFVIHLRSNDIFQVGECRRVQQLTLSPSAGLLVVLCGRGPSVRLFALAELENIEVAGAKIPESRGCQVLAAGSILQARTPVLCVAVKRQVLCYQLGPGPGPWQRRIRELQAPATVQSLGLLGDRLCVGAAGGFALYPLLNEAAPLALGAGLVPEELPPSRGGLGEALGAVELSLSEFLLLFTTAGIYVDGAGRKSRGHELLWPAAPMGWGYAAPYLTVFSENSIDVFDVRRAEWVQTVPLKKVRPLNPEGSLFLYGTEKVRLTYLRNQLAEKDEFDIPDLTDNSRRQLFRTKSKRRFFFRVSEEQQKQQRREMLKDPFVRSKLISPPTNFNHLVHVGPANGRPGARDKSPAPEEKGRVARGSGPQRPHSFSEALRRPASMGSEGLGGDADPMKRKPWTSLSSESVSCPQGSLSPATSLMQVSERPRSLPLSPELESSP
Chain of NEK7 (Q8TDX7 whole entry): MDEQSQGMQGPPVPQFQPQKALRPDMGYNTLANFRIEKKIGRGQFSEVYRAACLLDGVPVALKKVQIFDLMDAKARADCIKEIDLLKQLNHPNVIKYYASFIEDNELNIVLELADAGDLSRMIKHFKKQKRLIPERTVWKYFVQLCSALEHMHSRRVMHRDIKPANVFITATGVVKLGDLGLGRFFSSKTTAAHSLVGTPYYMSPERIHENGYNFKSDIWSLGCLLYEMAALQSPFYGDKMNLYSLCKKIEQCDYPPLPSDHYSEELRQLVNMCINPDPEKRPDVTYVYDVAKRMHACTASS

As to `c1ccc2c(c1)Sc1ccccc1N2CCN1CCOCC1` [J54], the remaining binding came out at 100% at p38-beta; 100% at BMX; 100% at EPHA5; 85% at INSRR; 100% on PCTK2; 100% at BRSK1. Further, the remaining binding on CAMKK2 came out at 100%; on PRKR, 93%; on SYK, 100%; on ASK2, 100%; at PIP5K1C it was 100%; on NEK7, 100%. In addition, the remaining binding on DMPK2 came out at 89%; in assay [1], 100%; at QSK, 100%; at BRSK2 it was 100%; on PKAC-beta, 86%; on PLK2 it was 100%.
